# Data: patent US6492416B1, “4,5-diaryl-3(2H)-furanone derivatives as cyclooxygenase-2 inhibitors” (Pacific Corporation, priority 1999, dated 2002)
# Columns and labels:
# COX-2 = target: T1, COX-2 (Mus musculus, UniProt Q05769); test: Evaluation of COX-2 activity: PGE2 formation in aspirin-treated, LPS-stimulated mouse peritoneal macrophages; assay type: cell-based; settings: for IC50: read-out: IC50, μg/ml COX-2 (converted)
# T1 sequence (Q05769 18-604): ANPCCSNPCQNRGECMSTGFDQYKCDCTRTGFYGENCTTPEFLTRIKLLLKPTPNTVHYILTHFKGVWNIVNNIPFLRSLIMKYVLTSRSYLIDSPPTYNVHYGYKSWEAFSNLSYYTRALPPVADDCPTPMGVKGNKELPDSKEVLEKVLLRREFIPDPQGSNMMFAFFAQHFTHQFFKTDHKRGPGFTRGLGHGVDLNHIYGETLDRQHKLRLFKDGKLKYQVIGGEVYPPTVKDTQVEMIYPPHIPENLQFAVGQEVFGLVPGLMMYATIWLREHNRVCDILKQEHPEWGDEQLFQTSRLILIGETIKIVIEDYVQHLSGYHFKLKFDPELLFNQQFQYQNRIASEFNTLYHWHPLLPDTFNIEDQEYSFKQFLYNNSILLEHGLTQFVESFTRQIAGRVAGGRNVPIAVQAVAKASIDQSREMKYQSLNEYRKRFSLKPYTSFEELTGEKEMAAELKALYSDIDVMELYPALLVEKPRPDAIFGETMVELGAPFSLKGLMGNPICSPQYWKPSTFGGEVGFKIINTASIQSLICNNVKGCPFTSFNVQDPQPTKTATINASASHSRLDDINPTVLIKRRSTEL
# Protocol: (§1) Evaluation of in vitro COX-2 and COX-1 Activity [J. Pharmacol. Exp. Ther. 166, 96 (1969)]
# (§2) The abdominal skin of a C57BL/6 mouse was sanitized with 70% aqueous ethanol, and was removed without damaging the peritoneum. 5 ml of cold phosphate buffer solution (PBS) was then injected into the abdominal cavity. After a minute, the peritoneal fluid containing the macrophages was collected using a syringe and a needle. The collected fluid was centrifuged for 5 min at 1500 rpm to afford pellets of cells. The pellets were then dispersed in the RPMI-1640 culture medium containing 100 units/ml penicillin and 100 μg/ml streptomycin.
# The pellets dispersed as above were treated with 500 μM aspirin in order to knock out the activity of the COX-1 enzymes in the cells. The suspension was then diluted with the RPMI-1640 medium to contain 1×10^6 cells/ml. 100 μl of the suspension was added to each well of a 96-well ELISA plate. Then the plate was incubated for 2 hrs at 37° C. under 5% CO2 in order to fix the macrophages onto the plate. The cells, which were not fixed onto the plate were removed by washing with PBS two times. […] The RPMI-1640 medium containing 3% fetal bovine serum albumin was added to each well of the plate, which was followed by stimulation with 10 μg/ml lipopolysaccharide (LPS). […] The LPS-treated suspensions were incubated for 16 hours at 37° C. under 5% CO2 to induce COX-2. Then the culture medium was removed and the macrophages were washed two times with PBS. Then 130 μl RPMI-1640 culture medium was added to each well and the macrophage solutions were incubated at 37° C. for 10 minutes, which was followed by the treatment with 10 μM arachidonic acid and an appropriate amount of compounds of this invention. The plate was incubated for another 10 minutes. The upper solution was collected using a micropipette and was subjected to determination of PGE2 amount in the solution. The amount of PGE2 present in the collected solution was determined either by a known radio-immuno assay or by a known enzyme-immunoassay [Methods in Enzymol. 86, 258 (1982); Methods in Enzymol. 187, 24 (1990)]. The extent of COX-2 inhibition by a compound of the present invention was calculated by assuming, that the amount of PGE2 formed with the treatment of 10 μg/ml arachidonic acid was used is the maximum possible amount of PGE2, and that the amount of PGE2 formed without the treatment of arachidonic acid is the minimum possible amount of PGE2.
# (§3) In order to determine IC50 for a compound of this invention, enzymatic activities were measured at multiple concentrations of compounds of this invention around IC50 of the compound. Usually enzymatic activities at 4˜5 concentrations were measured to calculate out IC50 for a compound of this invention.
# COX-1 = target: T2, COX-1 (Mus musculus, UniProt P22437); test: Evaluation of COX-1 activity: PGE2 formation in mouse peritoneal macrophages without aspirin and LPS treatment; assay type: cell-based; settings: for IC50: read-out: IC50, μg/ml COX-1 (converted)
# T2 sequence (P22437 27-602): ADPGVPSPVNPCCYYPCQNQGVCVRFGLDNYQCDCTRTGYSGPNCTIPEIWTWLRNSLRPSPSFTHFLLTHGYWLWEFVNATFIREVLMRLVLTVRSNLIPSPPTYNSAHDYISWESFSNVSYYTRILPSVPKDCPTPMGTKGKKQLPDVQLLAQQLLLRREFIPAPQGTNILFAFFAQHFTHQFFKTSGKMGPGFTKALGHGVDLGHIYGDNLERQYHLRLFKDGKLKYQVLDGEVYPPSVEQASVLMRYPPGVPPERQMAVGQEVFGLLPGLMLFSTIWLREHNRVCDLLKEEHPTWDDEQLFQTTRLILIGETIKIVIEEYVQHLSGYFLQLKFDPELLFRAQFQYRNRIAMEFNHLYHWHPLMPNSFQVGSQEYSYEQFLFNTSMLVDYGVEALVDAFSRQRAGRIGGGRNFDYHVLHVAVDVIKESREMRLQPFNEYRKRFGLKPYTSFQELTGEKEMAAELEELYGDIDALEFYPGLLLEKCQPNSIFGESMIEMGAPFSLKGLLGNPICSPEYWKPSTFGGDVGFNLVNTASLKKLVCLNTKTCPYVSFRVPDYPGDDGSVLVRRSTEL
# Protocol: as §1, §2
# The pellets dispersed as above were treated with 500 μM aspirin in order to knock out the activity of the COX-1 enzymes in the cells. The suspension was then diluted with the RPMI-1640 medium to contain 1×10^6 cells/ml. 100 μl of the suspension was added to each well of a 96-well ELISA plate. Then the plate was incubated for 2 hrs at 37° C. under 5% CO2 in order to fix the macrophages onto the plate. The cells, which were not fixed onto the plate were removed by washing with PBS two times. The purity of macrophages obtained thereby was confirmed by differential counting. The RPMI-1640 medium containing 3% fetal bovine serum albumin was added to each well of the plate, which was followed by stimulation with 10 μg/ml lipopolysaccharide (LPS). Usually 5×10^5 cells/ml were present by this preparation. The LPS-treated suspensions were incubated for 16 hours at 37° C. under 5% CO2 to induce COX-2. Then the culture medium was removed and the macrophages were washed two times with PBS. Then 130 μl RPMI-1640 culture medium was added to each well and the macrophage solutions were incubated at 37° C. for 10 minutes, which was followed by the treatment with 10 μM arachidonic acid and an appropriate amount of compounds of this invention. The plate was incubated for another 10 minutes. The upper solution was collected using a micropipette and was subjected to determination of PGE2 amount in the solution. The amount of PGE2 present in the collected solution was determined either by a known radio-immuno assay or by a known enzyme-immunoassay [Methods in Enzymol. 86, 258 (1982); Methods in Enzymol. 187, 24 (1990)]. The extent of COX-2 inhibition by a compound of the present invention was calculated by assuming, that the amount of PGE2 formed with the treatment of 10 μg/ml arachidonic acid was used is the maximum possible amount of PGE2, and that the amount of PGE2 formed without the treatment of arachidonic acid is the minimum possible amount of PGE2.
# In the evaluation of COX-1 inhibitory activity by a compound of the present invention, the same procedures employed for evaluation of COX-2 activity were employed, except omitting the following two steps: 1) the treatment with aspirin for knockout of COX-1 activity and 2) treatment with LPS for induction of COX-2.
# as §3
SMILES,"IC50, μg/ml COX-2 (COX-2)","IC50, μg/ml COX-1 (COX-1)",melting point,IC50 (COX-2),IC50 (COX-1)
"CC1(C)OC(c2ccc(S(C)(=O)=O)cc2)=C(c2ccsc2)C1=O [Example 17, 2,2-Dimethyl-5-{4-(methylsulfonyl)phenyl}4-(3-thienyl)-3(2H)-furanone]",0.2 µg/mL,30 µg/mL,–,–,–
"CC1(C)OC(c2ccc(S(C)(=O)=O)cc2)=C(c2ccco2)C1=O [Example 18, 2,2-Dimethyl-4-(2-furanyl)-5-{4-(methylsulfonyl)phenyl}-3(2H)-furanone]",0.2 µg/mL,30 µg/mL,–,–,–
"COc1ccc(C2=C(c3ccc(S(N)(=O)=O)cc3)OC(C)(C)C2=O)cc1OC [Example 24, 5-{4-(Aminosulfonyl)phenyl}-4-{3,4-(dimethoxy)phenyl}-2,2-dimethyl 3(2H)-furanone]",0.034 µg/mL,6.97 µg/mL,–,–,–
"CCC1(C)OC(c2ccc(S(C)(=O)=O)cc2)=C(c2cccnc2)C1=O (centres unmarked) [Example 36, 2-Ethyl-2-methyl-5-{4-(methylsulfonyl)phenyl}-4-(3-pyridyl)-3(2H)-furanone]",0.2 µg/mL,50 µg/mL,–,–,–
"CCC1(CC)OC(c2ccc(S(C)(=O)=O)cc2)=C(c2ccc(C(C)=O)cc2)C1=O [Example 49, 4-(4-Acetylphenyl)-2,2-diethyl-5-{4-(methylsulfonyl)phenyl}-3(2H)-furanone]",0.3 µg/mL,30 µg/mL,–,–,–
"CCC1(CC)OC(c2ccc(S(C)(=O)=O)cc2)=C(c2ccc(OC)c(F)c2)C1=O [Example 50, 2,2-Diethyl-4-(3-fluoro-4-methoxyphenyl)-5-{4-(methylsulfonyl)phenyl}-3(2H)-furanone]",0.03 µg/mL,20 µg/mL,–,–,–
"CS(=O)(=O)c1ccc(C2=C(c3ccccc3)C(=O)C3(CCCC3)O2)cc1 [Example 53, 2-{(4-Methylsulfonyl)phenyl}-3phenyl-1-oxa-spiro[4,4]non-2-en-4-one]",0.03 µg/mL,5 µg/mL,–,–,–
"CC(C)c1ccc(C2=C(c3ccc(S(C)(=O)=O)cc3)OC3(CCCC3)C2=O)cc1 [Example 54, 3-(4-Isopropylphenyl)-2-{4-(methylsulfonyl)phenyl}-1-oxa-spiro[4,4]non-2-en-4-one]",0.05 µg/mL,–,–,–,–
CC1(C)OC(c2ccc(S(C)(=O)=O)cc2)=C(c2ccccc2Cl)C1=O [Example 69],–,50 µg/mL,100 to 103 °C,–,–
CC1(C)OC(c2ccc(S(C)(=O)=O)cc2)=C(c2ccc(F)c(F)c2)C1=O [Example 80],–,5 µg/mL,162 °C,–,–
COc1cccc(C2=C(c3ccc(S(C)(=O)=O)cc3)OC(C)(C)C2=O)c1 [Example 95],0.1 µg/mL,30 µg/mL,–,–,–
"CC(O)c1ccc(C2=C(c3ccc(S(C)(=O)=O)cc3)OC(C)(C)C2=O)cc1 (centres unmarked) [Example 111, 2,2-Dimethyl-4-{4-(1-hydroxyethyl)phenyl}-5-{4-(methylsulfonyl)phenyl}-3(2H)-furanone]",0.3 µg/mL,50 µg/mL,–,–,–
CC1(C)OC(c2ccc(S(C)(=O)=O)cc2)=C(c2cccs2)C1=O [Example 113],0.03 µg/mL,3 µg/mL,–,–,–
"CSc1ccc(C2=C(c3cccc(Cl)c3)C(=O)C(C)(C)O2)cc1 [Example 168, 4-(3-chlorophenyl)-2,2-dimethyl-5-{4-(methylthio)phenyl}-3(2H)-furanone]",0.5 µg/mL,3 µg/mL,–,–,–
CCC1(C)OC(c2ccc(S(C)(=O)=O)cc2)=C(c2cccc(OC)c2)C1=O (centres unmarked) [Example 200],–,–,–,0.776 µM,77.6 µM
CCC1(C)OC(c2ccc(S(C)(=O)=O)cc2)=C(c2cccc(C(C)C)c2)C1=O (centres unmarked) [Example 201],–,–,–,0.251 µM,50.2 µM
CCCc1ccc(C2=C(c3ccc(S(C)(=O)=O)cc3)OC(C)(CC)C2=O)cc1 (centres unmarked) [Example 202],–,–,–,0.0753 µM,7.53 µM
CCC1(C)OC(c2ccc(S(C)(=O)=O)cc2)=C(c2ccc(C)s2)C1=O (centres unmarked) [Example 225],0.03 µg/mL,3 µg/mL,–,–,–
"CS(=O)(=O)c1ccc(C2=C(c3cccc(F)c3)C(=O)C3(CCOCC3)O2)cc1 [Example 261, 3-(3-Fluorophenyl)-2-{4-(methylsulfonyl)phenyl}-1,8-dioxa-spiro[4,5]dec-2-en-4-one]",1 µg/mL,300 µg/mL,–,–,–
"C[S+]([O-])c1ccc(C2=C(c3cccc(F)c3)C(=O)C(C)(C)O2)cc1F (centres unmarked) [Example 290, 2,2-Dimethyl-5-{3-fluoro-4-(methylsulfinyl)phenyl)-4-(3-fluorophenyl)-3(2H)-furanone]",0.3 µg/mL,20 µg/mL,–,–,–
"CC1(C)OC(c2ccc(S(N)(=O)=O)c(F)c2)=C(c2ccccc2)C1=O [Example 300, 5-{4(Aminosulfonyl)-3-fluorophenyl}-2,2-dimethyl-4-phenyl-3(2H)-furanone]",0.03 µg/mL,20 µg/mL,–,–,–
